The text below walks through data of publication PMC5522996, “Big conductance calcium‐activated potassium channel openers control spasticity without sedation” (British Journal of Pharmacology, 2017).

As a reminder, the EC50 is the concentration at which the effect is half-maximal.

The subject of one data set is mouse vas deferens. Nature of the data set: Electrically‐evoked contraction of the mouse vas deferens. The data set is classed as cell-based. The settings on record: Mus musculus, read-out: EC50, inhibition of electrically‐evoked contraction. The procedure:
Vasa deferentia were obtained from outbred MF‐1 mice and mounted vertically in a 4 mL organ bath at an initial tension of 0.5 g. The baths contained Mg^2+‐free Krebs solution (NaCl 118.2 mM, KCl 4.75 mM, KH2PO4 1.19 mM, NaHCO3 25.0 mM, glucose 11.0 mM and CaCl2·6H2O 2.54 mM), which was kept at 35–36°C and bubbled with 95% O2 and 5% CO2. […] Contractions were monitored by a computer using a data recording and analysis system as described previously (Ross et al., 2001). After placement in an organ bath, each tissue was subjected to a stimulation‐free period of 10 min and then stimulated for 10 min. Tissues were then subjected to alternate periods of stimulation (5 min) and rest (10 min) until consistent twitch amplitudes were obtained. This equilibration procedure was followed by a stimulation‐free period of 25 min. Tissues were then stimulated for 5 min after which the first agonist addition was made and stimulation continued until the end of the experiment.

Data set [1] relates to rat mesenteric artery. The arrangement: method as in Hoi et al., 2007. The settings on record: ref Hoi et al., 2007; read-out: EC50, vasorelaxation of rat mesenteric arteries; cited from earlier work.
The nature of data set [2]: Stability in pooled mouse plasma. It counts as in vitro ADME. To be noted: 37°C, upper limit 100 min, read-out: t ½ in plasma. The procedure:
(§1) The stability of compounds when subjected to hepatic and plasma degradation was assessed in vitro by Inpharmatica, Cambridge, UK. Compounds (1 μM) were incubated with either pooled mouse liver microsomes (0.1 mg protein mL^−1) or pooled mouse plasma at 37°C for 0, 5, 10, 20 and 40 min before termination with acetonitrile containing warfarin as an analytical internal standard. Samples were centrifuged, and the resultant supernatant analysed for parent compound. The mass responses at baseline were taken as the 100% reference values against which the disappearance of the compound was measured. The natural log of the % remaining values was used to generate linear plots of disappearance of the compounds. Half‐life values were calculated from the slope of these plots. Hepatocyte metabolism was assessed by Cyprotex, Macclesfield, and 10 μM VSN16R was incubated with primary mouse, rat, monkey (Macaque) and human hepatocytes for 1 h, and the presence of metabolites was assessed using liquid […] mass spectroscopy. The stability of VSN16R was assessed in vivo by Inpharmatica, Cyprotex and Charles Rivers, Cambridge. Blood (plasma) samples were obtained prior to and 5 min to 24 h after drug administration of 2–5 mg·kg^−1 i.v. or 5 mg·kg^−1 p.o. VSN16R into outbred mice and rats (n = 3 per time point). […] Data are expressed as mean ± SEM. […]

For another data set, the target named is CYP450 2B6 (Homo sapiens, UniProt P20813).
Data set [3] is described as follows: Plasma, brain and spinal cord levels in ABH mice with spastic EAE. It counts as in vivo, mouse. The settings on record: after 5 mg·kg^−1 p.o. VSN16R, ABH mice with spastic EAE. The procedure: (§2) The stability of compounds when subjected to hepatic and plasma degradation was assessed in vitro by Inpharmatica, Cambridge, UK. Compounds (1 μM) were incubated with either pooled mouse liver microsomes (0.1 mg protein mL^−1) or pooled mouse plasma at 37°C for 0, 5, 10, 20 and 40 min before termination with acetonitrile containing warfarin as an analytical internal standard. Samples were centrifuged, and the resultant supernatant analysed for parent compound. The mass responses at baseline were taken as the 100% reference values against which the disappearance of the compound was measured. The natural log of the % remaining values was used to generate linear plots of disappearance of the compounds. Half‐life values were calculated from the slope of these plots. Hepatocyte metabolism was assessed by Cyprotex, Macclesfield, and 10 μM VSN16R was incubated with primary mouse, rat, monkey (Macaque) and human hepatocytes for 1 h, and the presence of metabolites was assessed using liquid […] mass spectroscopy. The stability of VSN16R was assessed in vivo by Inpharmatica, Cyprotex and Charles Rivers, Cambridge. Blood (plasma) samples were obtained prior to and 5 min to 24 h after drug administration of 2–5 mg·kg^−1 i.v. or 5 mg·kg^−1 p.o. VSN16R into outbred mice and rats (n = 3 per time point). In addition, plasma, brain and spinal cord samples were obtained from ABH with spastic EAE. Immediately after blood collection, the brain and spinal cord were removed and then stored at −20°C prior to assay. Tissue samples were weighed, homogenized and centrifuged, and the lysates generated. Brain lysates and plasma were assayed by LC–MS methods by Inpharmatica/Charles Rivers, Cambridge, UK. This was also performed using a Waters Xevo TQ or API4000, AB Sciex mass spectrometer using spiked samples as standards. PK Solutions Software (Summit Research Services, Montrose, CO, USA), AB Sciex Analyst software combined with Thermo Fisher Scientific Watson LIMS processing and reporting software or WinNonLin pharmacokinetic or PK solutions 2.0 software (Summit Research Services, Montrose CO, USA) were used to produce PK parameters. Data are expressed as mean ± SEM. The detection limit of VSN16R was 2 ng·mL^−1 in plasma and brain and 14 ng·mL^−1 in spinal cords. The detection limit of VSN22R was 2 ng·mL^−1 in plasma and 0.1 ng·mL^−1 for VSN44R in plasma. Pharmacokinetics in toxicological samples in rats (n = 6 per group), dogs (n = 6 per group) and humans (n = 6 per group) were performed by Charles Rivers (Edinburgh, UK).

Data set [4] is described as follows: Phase I pharmacokinetics in healthy humans. The data set is classed as in vivo, human. To be noted: male, human, plasma, oral; twice daily dosing of VSN16R; read-out: Steady‐state plasma levels. The procedure: as §2, with “cords.” for “cords. The detection limit of VSN22R was 2 ng·mL^−1 in plasma and 0.1 ng·mL^−1 for VSN44R in plasma. Pharmacokinetics in toxicological samples in rats (n = 6 per group), dogs (n = 6 per group) and humans (n = 6 per group) were performed by Charles Rivers (Edinburgh, UK).”

The next data set concerns the target T1, BKCa channel (Homo sapiens, UniProt Q12791+Q86W47).
T1 construct: host or cells: EA.hy926 endothelial cells
As to the kind of experiment: Single‐channel inside‐out patch clamp, EA.hy926 cells. The settings on record: 3 μM, inner surface of membrane, 40 mV, 0.3 μM free Ca^2+. The data set is classed as cell-based. Here is the method:
The human EA.hy926 endothelial cells (ATCC, Manassas, USA) were grown in DMEM containing 10% FCS and 1% HAT (5 mM hypoxanthine, 20 μM aminopterin and 0.8 mM thymidine) and were maintained in an incubator at 37°C in 5% CO2 atmosphere (Bondarenko et al., 2013). Human HNC‐2 neuronal cells were obtained from ATCC. For experiments, cells were plated on glass coverslips. Single‐channel recordings were obtained from excised inside‐out membrane patches in symmetrical solutions using the patch‐clamp technique. All patch‐clamp experiments were performed at room temperature with the use of a water hydraulic micromanipulator (WR‐6, Narishige, Japan). […] The pipettes were filled with 140 mM KCl, 10 mM HEPES, 1 mM MgCl2, 5 mM EGTA and […] CaCl2 buffered to pH 7.2 by adding KOH. Cells were super‐perfused with a bath solution containing 140 mM NaCl, 5 mM KCl, 1.2 mM MgCl2, 10 mM HEPES, 10 mM glucose and 2.4 mM CaCl2. Following gigaseal formation, bath solution was switched to the following: 140 mM KCl, 10 mM HEPES, 1 mM MgCl2, 5 mM EGTA and a designated free Ca^2+ concentration, which was adjusted by adding different amounts of CaCl2 buffered to pH 7.2. (Bondarenko et al., 2011; Bondarenko et al., 2013). Single‐channel activity was expressed as NPo, where N represents the number of functional ion channels in the membrane patch and Po represents the open channel probability determined from idealized traces (Bondarenko et al., 2011). NPo was obtained from ≥20 s of continuous recording under each experimental condition. The effect of VSN16R was estimated after 3 min of continuous exposure to VSN16R‐containing solution. Data were analysed by ANOVA, and statistical significance was evaluated using Scheffés post hoc test of the Prism 5 software for Windows (GraphPad Software).

Data set [5] concerns spastic ABH mice with EAE. Nature of the data set: Spasticity: resistance to hindlimb flexion against a strain gauge. To be noted: 5 mg·kg^−1 i.v.
In data set [6] the test system is rat mesenteric artery. Nature of the data set: Methoxamine‐evoked contraction of rat mesenteric artery. It counts as cell-based. The settings on record: 200 µM. The procedure: Vessels were equilibrated and set to a basal tension of 2 to 2.5 mN. The integrity of the endothelium was assessed by pre‐contracting the vessel with 10 μM methoxamine (an α1‐adrenoceptor agonist), followed by relaxation with 10 μM carbachol (a muscarinic acetylcholine receptor agonist); vessels showing relaxations of greater than 90% were designated as endothelium‐intact. When the endothelium was not required, it was removed by rubbing the intima with a human hair; carbachol‐induced relaxation of less than 10% indicated successful removal. After the test for endothelial integrity, vessels were left for 30 min and then pre‐contracted with 10 μM methoxamine. This was followed by construction of a cumulative concentration–relaxation curve to VSN16R (10 nM–1 μM). […] Most experiments were performed in matched vessels; effects of blockers or endothelial removal were compared with the control responses obtained in separate vessels of the same rats. All relaxant responses are expressed as percentage relaxation of the tone induced by methoxamine. Values are given as mean ± SEM. Statistical comparisons of concentration‐dependent responses were made by two‐way ANOVA using Prism 4 (GraphPad Software, Inc, San Diego, CA, USA).

The subject of the next data set is BKCa channels. Details: method as in Denson DD et al. Brain Res 638:61. To be noted: ref Denson DD et al. Brain Res 638:61; read-out: EC50, inhibition of inside-out current of BKCa channels; cited from earlier work.
For the next data set, the target named is CYP450 2A6 (Homo sapiens, UniProt P11509). As to the kind of experiment: CYP450 inhibition of substrate binding.
Data set [7] can be described thus: Stability in pooled mouse liver microsomes. The data set is classed as in vitro ADME. The settings on record: microsomes, 37°C, upper limit 100 min, read-out: t ½ in liver microsomes. Here is the method: as §1
On the technique in general: Microsomes from liver hold many membrane-bound enzymes, among them those of drug oxidation.

T1 sequence (Q12791 whole entry): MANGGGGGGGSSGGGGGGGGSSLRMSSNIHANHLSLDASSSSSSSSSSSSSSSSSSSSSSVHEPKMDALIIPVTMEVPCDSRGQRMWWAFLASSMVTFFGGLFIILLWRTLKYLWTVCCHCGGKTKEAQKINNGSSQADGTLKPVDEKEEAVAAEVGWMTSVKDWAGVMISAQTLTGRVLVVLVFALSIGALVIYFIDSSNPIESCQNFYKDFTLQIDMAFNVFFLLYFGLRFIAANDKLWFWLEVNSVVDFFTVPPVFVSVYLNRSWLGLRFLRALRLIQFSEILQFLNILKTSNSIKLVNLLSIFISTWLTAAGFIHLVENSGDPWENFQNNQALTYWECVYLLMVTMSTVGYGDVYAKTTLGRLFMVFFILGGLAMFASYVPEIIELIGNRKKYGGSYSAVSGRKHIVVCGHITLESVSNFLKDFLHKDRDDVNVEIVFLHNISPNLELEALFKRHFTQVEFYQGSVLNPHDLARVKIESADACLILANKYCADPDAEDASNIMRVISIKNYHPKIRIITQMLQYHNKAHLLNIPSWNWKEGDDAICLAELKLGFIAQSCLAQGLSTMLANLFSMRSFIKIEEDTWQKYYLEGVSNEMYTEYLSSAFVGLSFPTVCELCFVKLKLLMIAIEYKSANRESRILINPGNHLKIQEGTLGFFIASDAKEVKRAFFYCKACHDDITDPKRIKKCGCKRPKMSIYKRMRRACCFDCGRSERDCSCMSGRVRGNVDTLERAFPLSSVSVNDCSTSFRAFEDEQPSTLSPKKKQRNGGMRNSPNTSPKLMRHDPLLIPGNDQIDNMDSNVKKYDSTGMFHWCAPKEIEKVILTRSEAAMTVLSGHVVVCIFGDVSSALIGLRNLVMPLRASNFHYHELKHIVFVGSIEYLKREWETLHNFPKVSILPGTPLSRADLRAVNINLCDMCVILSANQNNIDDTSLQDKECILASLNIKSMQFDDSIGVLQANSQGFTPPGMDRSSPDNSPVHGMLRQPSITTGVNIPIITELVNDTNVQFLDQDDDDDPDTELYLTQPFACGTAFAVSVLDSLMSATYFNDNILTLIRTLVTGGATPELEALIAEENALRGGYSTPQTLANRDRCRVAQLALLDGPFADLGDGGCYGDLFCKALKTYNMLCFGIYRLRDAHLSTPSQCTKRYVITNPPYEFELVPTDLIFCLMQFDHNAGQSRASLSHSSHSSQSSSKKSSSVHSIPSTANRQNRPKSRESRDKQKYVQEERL
T1 sequence (Q86W47 whole entry): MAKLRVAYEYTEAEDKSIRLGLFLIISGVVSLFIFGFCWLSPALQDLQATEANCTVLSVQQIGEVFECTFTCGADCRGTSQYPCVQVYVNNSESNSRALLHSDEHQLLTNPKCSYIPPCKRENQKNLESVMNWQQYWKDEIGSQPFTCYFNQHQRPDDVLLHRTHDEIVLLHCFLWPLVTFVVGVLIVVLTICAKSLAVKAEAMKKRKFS
CYP450 2A6, sequence (P11509 whole entry): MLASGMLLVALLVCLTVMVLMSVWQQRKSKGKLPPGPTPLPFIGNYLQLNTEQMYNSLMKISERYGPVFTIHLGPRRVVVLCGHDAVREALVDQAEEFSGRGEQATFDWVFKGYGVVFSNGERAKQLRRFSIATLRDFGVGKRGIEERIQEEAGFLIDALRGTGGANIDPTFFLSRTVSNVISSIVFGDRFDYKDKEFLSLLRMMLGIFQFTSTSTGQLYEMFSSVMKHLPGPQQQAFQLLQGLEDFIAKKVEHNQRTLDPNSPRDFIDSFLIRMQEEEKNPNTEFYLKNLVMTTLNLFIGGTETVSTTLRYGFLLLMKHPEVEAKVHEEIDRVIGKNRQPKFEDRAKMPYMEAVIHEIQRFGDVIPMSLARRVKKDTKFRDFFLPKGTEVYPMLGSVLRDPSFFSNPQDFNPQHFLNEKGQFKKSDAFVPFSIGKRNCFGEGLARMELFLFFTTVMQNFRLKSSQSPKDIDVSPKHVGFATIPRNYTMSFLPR
CYP450 2B6, sequence (P20813 whole entry): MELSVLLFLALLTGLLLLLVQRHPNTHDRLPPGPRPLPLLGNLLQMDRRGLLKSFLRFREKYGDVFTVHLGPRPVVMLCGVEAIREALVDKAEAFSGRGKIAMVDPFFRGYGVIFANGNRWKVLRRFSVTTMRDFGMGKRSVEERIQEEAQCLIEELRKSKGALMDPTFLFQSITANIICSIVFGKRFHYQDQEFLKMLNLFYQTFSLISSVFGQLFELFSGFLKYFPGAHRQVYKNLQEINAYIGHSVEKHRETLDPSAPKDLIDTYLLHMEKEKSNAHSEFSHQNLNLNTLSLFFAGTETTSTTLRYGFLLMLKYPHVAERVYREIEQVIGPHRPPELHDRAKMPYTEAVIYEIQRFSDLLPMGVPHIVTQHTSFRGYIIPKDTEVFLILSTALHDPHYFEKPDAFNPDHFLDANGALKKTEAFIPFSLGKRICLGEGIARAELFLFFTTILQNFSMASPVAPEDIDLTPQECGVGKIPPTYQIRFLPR
Description for CYP450 2A6: IC50 Inhibition of substrate binding
(§3) Inhibition of binding of either 3-cyano-7-ethoxycoumarin, dibenzylfluorescein or 7-benzyoxy-4-
(§4) (trifluoromethyl) coumarin in human enzyme transfected BTI NN-5B1-4 cells or Sf9 insect cells or
(§5) inhibition of dextromethorphan substrate to CYP450 2D6 in liver microsomes.
Description for CYP450 2B6: IC50 Inhibition of substrate binding
as §3, §4, §5

Consider `C[C@@H](CO)NC(=O)c1cccc(/C=C\CCCC(=O)N(C)C)c1` [VSN16S], for which the concentration giving a half-maximal response (EC50) is 37 nM in the data set with mouse vas deferens and 140 nM with rat mesenteric artery [1].
As to `CC(=O)Oc1ccc(C(c2ccc(OC(C)=O)cc2)c2ccccn2)cc1` [bisacodyl, reference compound], the half-life at 1 μM in [2] turned out to be 2 min.
At CYP450 2B6, `CC(=O)N1CCN(c2ccc(OCC3COC(Cn4ccnc4)(c4ccc(Cl)cc4Cl)O3)cc2)CC1` (stereo not shown) [Ketoconazole, reference compound] displayed an EC50 of 2900 nM.
Regarding `CNC(=O)CCC/C=C\c1cccc(C(=O)N[C@H](C)CO)c1` [VSN22R, (R,Z)‐N‐(1‐hydroxypropan‐2‐yl)‐3‐(6‐(methylamino)‐6‐oxohex‐1‐en‐1‐yl)benzamide], the 50% effective concentration (EC50) with mouse vas deferens is 9 nM. For the same compound, in [3], the “Plasma level of the named species” value worked out at 106 ± 6.1 ng/mL. For the same compound, the concentration at 1 week in data set [4] is above 100 nM. In addition, the “Single BKCa channel activity” value at BKCa channel is given as “facilitated single BKCa channel activity”. Moreover, in data set [5], the Inhibition of spasticity entry is reported as “could inhibit the spasticity”.
Consider `CNC1(c2ccccc2Cl)CCCCC1=O` (stereo not shown) [ketamine], for which the “Effect on VSN16R relaxation of methoxamine-evoked contraction” value with rat mesenteric artery [6] is “can inhibit the mechanism of action of VSN16R”. The half-maximal effective concentration (EC50) in the data set on BKCa channels was around 25000 nM.
For the compound `N[C@@H]1C[C@H]1c1ccccc1` (racemic) [Tranylcypromine, reference compound], at CYP450 2A6, a half-maximal response (EC50) required 200 nM.
Turning to `Cc1ncc2n1-c1ccc(Cl)cc1C(c1ccccc1F)=NC2` [midazolam, reference compound], the half-life at 1 μM in data set [7] came out at 17 min.
